From ChEMBL document CHEMBL3507680, “University of Dundee, Gates Library screen for HepG2 cell viability”

Experiment: Human HepG2 cell viability assay in 384 well format
Assay type: toxicity, cell-based
Parameters: dose 125 nL, time 70.5 hour; cytotoxicity at 70.5 h: concentration not given beside the values
Conditions: HepG2 cells, read-out: Inhibition

Structure (SMILES)	cytotoxicity at 70.5 h
CCOc1cccc(CN2CCCC(Nc3ccc(F)cc3)C2)c1O (stereo not drawn)	-6.06%
CSCCc1n[nH]c2c1CN(S(=O)(=O)c1c(C)nn(C)c1C)CC2	17.2%
CCC(=O)N1CCC2(CC1)CNC(=O)c1cc(C)ccc1O2	-1.62%
O=C(Cc1cc2c(cc1Cl)OCCO2)N1CC[C@H](CO)[C@H](O)C1	-5.99%
CNS(=O)(=O)c1cccc(CNCc2ccsc2)c1	-1.74%
Cc1ncnc2c1CCN(C(=O)CN(C)C)CC2	19.6%
O=C(C1CCOCC1)N1CCc2ncnc(-c3ccccc3)c2CC1	1.86%
CC(C)=CCCC(C)(O)c1cc(C(N)=O)no1 (stereo not drawn)	-9.16%
Cc1cc(C)c2c(N3CCC(C(=O)N4CCCC4)CC3)ncnc2n1	-7.41%
CCCn1c(N2CCCC(C)C2)nc2c(C)nn(C)c2c1=O (stereo not drawn)	-14.3%
N[C@H]1CN(C(=O)Cc2ccc(CO)cc2)C[C@@H]1C1CC1	34.3%
COc1c(C)cnc(CN2CCCCC2CCN2CCOCC2)c1C (stereo not drawn)	-11.7%
CCc1cnc(N2CCC3(CCN(Cc4cccc(C)c4)C3=O)C2)nc1 (stereo not drawn)	1.75%
CCc1ocnc1C(=O)N1CCCC1c1noc(C(C)C)n1 (stereo not drawn)	-11%
CN(CCCc1n[nH]c(N)c1C#N)C(=O)NC1CC1	-2.78%
Cc1cccc(C(C)C)c1NC(=O)NCCN(C(C)C)C(C)C	-4.96%
CNC(=O)[C@H]1C[C@@H]2CN(C(=O)c3ccsc3)C[C@@H]2N1S(C)(=O)=O	-10.8%
Cc1cc(C)c(CNC(=O)NCC2CCCOC2)c(=O)[nH]1 (stereo not drawn)	-11.1%
CC(NCc1c(C(C)C)nn(C)c1N1CCOCC1)C(N)=O (stereo not drawn)	15.3%
CCc1n[nH]c(=O)c(C(=O)N2CCOC3(CCCC3)C2)c1CC	-2.62%
CN(C)S(=O)(=O)N1CCN(C(=O)c2cc(-c3ccc(Br)s3)n[nH]2)CC1	-10.1%
Cc1nc2ccc(C(=O)N3CCn4c(C)nnc4C3)cc2nc1C	-5.63%
Cn1c(C2CC2)nc2c1CCN(Cc1nc(Cc3ccccc3)no1)C2	-12.9%

Structure (SMILES)	cytotoxicity at 70.5 h
CC(=O)N1CC2(CCN(C(=O)c3ccc4c(c3)OCCO4)CC2)C1	20.2%
Cc1ccc(-c2csc(-c3cccc(C(=O)O)c3)n2)cc1	19.5%
COCCS(=O)(=O)c1ncc(CN(C)C)n1Cc1ccccc1	4.62%
O=C(c1cscn1)N1CCc2c(COCC3CC3)cncc2C1	-1.4%
CN(C)C[C@H]1C[C@H](CO)CN(C(=O)c2cc(S(N)(=O)=O)ccc2F)C1	-3.55%
COCCOCC(=O)Nc1ccc(C)cc1Cl	-0.473%
O=C(c1ccc2c(c1)OCO2)N1CCCC(Nc2ccc(F)cc2)C1 (stereo not drawn)	-2.98%
Cc1ccccc1CSc1nc(N)cc(N2CCCC(C(N)=O)C2)n1 (stereo not drawn)	-2.56%
CNC(=O)CN1CC[C@H]2CN(C(=O)c3ccoc3)C[C@H]2C1	-4.77%
CN1CCN(c2ncc3c(=O)n(-c4cccc(F)c4)c(=O)[nH]c3n2)CC1	-12.6%
Cc1nc(C)n(CC2CCCCN2CCCO)n1 (stereo not drawn)	9.77%
COc1ccccc1OCCNCc1c(C(C)C)nn(C)c1N(C)C	34.1%
Cc1cc(NC(=O)CSc2nc(=O)ccn2C(C)C)no1	-0.711%
Cn1c(CN2CCCC2)nnc1C1CCCN(C(=O)N2CCOCC2)C1 (stereo not drawn)	-3.17%
COc1ccc(CN2Cc3cnn(C)c3C(COCC3CC3)C2)cc1 (stereo not drawn)	-1.5%
Cc1csc(N2CCN(C(=O)CCn3cncn3)CC2)n1	-7.97%
O=C(C1CCC1)N1CCn2c(COc3ncccn3)nnc2C1	1.54%
Cc1c(C(=O)NC2(C#N)CCCC2)nnn1-c1ccccc1Cl	-9.11%
CN(CC(=O)NCC(F)(F)F)Cc1nc2c(s1)CCCC2	-9.23%
Cn1cc(CNC(=O)C2COCC(=O)N2Cc2ccccc2)cn1 (stereo not drawn)	2.62%
Cc1ccc(C2CSCCN2C(=O)c2cc(C(N)=O)cs2)o1 (stereo not drawn)	-8.27%
Cc1nc(C2CCCN2CCCn2c(=O)oc3ccccc32)no1 (stereo not drawn)	19.1%
Cc1cc(NC(=O)CN2CCc3cnc(C)nc3C2)on1	35.8%

Structure (SMILES)	cytotoxicity at 70.5 h
Cc1ccc(S(=O)(=O)NC[C@H]2OC[C@@H](NCc3ccccn3)[C@@H]2O)cc1	-6.39%
O=S(=O)(c1cncc(F)c1)N1CCC2(CCCCC2)C1	-13%
O=C(CCN1CCCO1)N1CC[C@@H](c2ccc3ccccc3c2)[C@H](O)C1	0.165%
CC(=O)N1CCN(C(=O)CNc2cccc(OC(F)F)c2C)CC1	-1.78%
CC(C)c1nc(CN(C)C(=O)[C@H](N)Cc2ccc(Cl)cc2)cs1	2.45%
CCN1CCN(C2CCN(Cc3nnc(C(C)(C)C)o3)CC2)C1=O	-11.1%
Cn1ccnc1CN1CCc2ncnc(N3CCCC3)c2CC1	-3.33%
CCc1cnc(N2CCC3(CC2)CCN(c2cnn(C)c2)C3=O)nc1	31.2%
O=C(Cn1c(C(F)F)cc2cccnc21)NC1CCCC1	-2.74%
N#Cc1cccc(C(=O)N2CCCC(O)(CO)CC2)c1 (stereo not drawn)	-4.07%
CCS(=O)(=O)N1C[C@@H]2CN(Cc3cnn(C)c3)CCO[C@@H]2C1	2.4%
CCc1noc(CN(C)C2CCN(c3sccc3C#N)C2=O)n1 (stereo not drawn)	-2.79%
CCN(CC)c1ccc(CNC(=O)c2cnccn2)cn1	18%
Cc1cnc(C(=O)NCC2Cc3ccccc3O2)cn1 (stereo not drawn)	1.1%
COCCN1C[C@@H](C)[C@@]2(COCCN(C(=O)c3cccc(C)n3)C2)C1	0.709%
Cc1cnn(CC2CN(Cc3ccccn3)CCO2)c1 (stereo not drawn)	-5.81%
CC(C)c1ccc(CN2CCC(CNS(=O)(=O)C3CC3)C2)cc1 (stereo not drawn)	-3.87%
COCCNC(=O)[C@H]1C[C@H]2OCC[C@H]2N(Cc2ccoc2)C1	-3.39%
CN(CCC(O)c1ccccc1)Cc1nc(-c2ccccc2)no1 (stereo not drawn)	-7.98%
CCOCC(O)CN1CCN(C(=O)c2ccnc(N(C)C)c2)CC1 (stereo not drawn)	-6.8%
CC(C)=CCCC(C)CN1CCC(n2cc(C(C)(C)O)nn2)CC1 (stereo not drawn)	-8.45%
CC(C)c1ncc2c(n1)CN(Cc1cccc(OCC(N)=O)c1)CC2	-7.58%
Cc1cccc(C(C(=O)NCC2(O)CCCCC2)N(C)C)c1 (stereo not drawn)	14.2%

Structure (SMILES)	cytotoxicity at 70.5 h
Cc1nn(-c2ncnc3[nH]cnc23)c2c1C(CC(C)C)CC(=O)N2 (stereo not drawn)	-2.59%
Cc1nc2c(c(NCc3ccc(-c4ccccn4)s3)n1)CCNCC2	-8.23%
CN(C)C(=O)NC1COC2(CCN(Cc3ccco3)CC2)C1 (stereo not drawn)	-12.8%
CCn1cc(C(=O)NCc2ccc3c(c2)OCO3)c(C)n1	-1.15%
CC(C)NC(=O)C1CCN(c2nc3nc[nH]c(=O)c3s2)CC1	-21.7%
COc1ccccc1C1(NCc2c(C)nc3c(C)cccn23)CCCC1	24.9%
Cc1cc(C(F)(F)F)nc(CNc2cc(C)nc3cc(C)nn23)n1	-2.86%
Cc1cc(C)n(CC2CCCN2C(=O)Cc2c(C)noc2C)n1 (stereo not drawn)	7.13%
NCC1Cc2cc(-c3nccc(N4CCC(O)CC4)n3)cc(F)c2O1 (stereo not drawn)	6.33%
CN(Cc1cccnc1)[C@@H]1CN(c2ncc(F)cn2)[C@@H]2CCCO[C@H]12	-11.8%
CC(C)N1CCC2(CC1)CC(=O)N(Cc1cc(F)cc(F)c1)C2	-2.98%
CC(C)c1noc(CCCC(=O)NC2CCS(=O)(=O)C2)n1 (stereo not drawn)	-0.791%
Cc1[nH]ccc1C(=O)N1CCN(C)C2(CCC(=O)N(C)CC2)C1 (stereo not drawn)	-11.2%
COCC(=O)N1C[C@@H](O)[C@H](N2CCN(c3ccccc3)CC2)C1	-0.565%
FC(F)(F)c1csc(N2CCN(Cc3ccccn3)CC2)n1	-6.63%
COc1c(C(=O)NCC2CCCO2)nnn1Cc1ccccc1 (stereo not drawn)	-3.19%
CCN(Cc1noc(C2CC2)n1)C(=O)c1onc2ccccc12	-8.65%
CCc1nc2n(n1)CC(NCC(=O)Nc1cc(C)nn1C)CC2 (stereo not drawn)	-6.14%
COc1ccc(Oc2ncccc2F)cc1CN1CCCC1	3.51%
CC(c1ccco1)N(C)Cc1cccc(C(=O)Nc2nccn2C)c1 (stereo not drawn)	-5.04%
CC(=O)N[C@@H](CC(C)C)C(=O)N1CCC(n2cc(CO)nn2)CC1	-4.38%
CCC(O)CN1CCN(C(=O)CN(C)c2ccc(Cl)cn2)CC1 (stereo not drawn)	-5.06%
Cc1nn(C)c2nc(N(C)CCN(C)C3CCCC3)sc12	5.16%

Structure (SMILES)	cytotoxicity at 70.5 h
Cc1cccc(OCCC(=O)NCC(C)(C)C(N)=O)c1	5.99%
CCC(CC)NC(=O)c1ccc2c(c1)C(c1nc[nH]n1)CN2S(C)(=O)=O (stereo not drawn)	-7.51%
Cc1nc2cc(O)nn2c(C)c1CCC(=O)NCCCC(C)C	-3.79%
O=C(Cc1c(F)cccc1Cl)Nc1cc(N2CCOCC2)ncn1	9.04%
Cc1ccc(CNCC2CCCn3ccnc32)s1 (stereo not drawn)	-4.1%
COCCCC1(CO)CCCN(Cc2cccc(C#N)c2)C1 (stereo not drawn)	-5.8%
COc1cccc2c1ccn2CCNC(=O)C(C)C	-6.5%
Cc1noc(C)c1CCCNC(=O)C1CCN(C(=O)C2CCC2)CC1	5.79%
COCC1COCCC12CCN(S(=O)(=O)c1ccc(C)cc1)CC2 (stereo not drawn)	-4.01%
Cc1ccc(CN2CCn3c(CN(C)C(C)C)cnc3C2)s1	-6.07%
Cc1cc2cc(CNC3CCN(S(C)(=O)=O)CC3)oc2cc1C	-1.78%
CNS(=O)(=O)c1cccc(CNC(=O)c2c(C)oc(C)c2C)c1	22.6%
Cc1ccc(CCC(=O)N2CCC(Nc3cccnn3)CC2)cc1	1.83%
CC(C)NC(=O)C(c1ccccc1)N1CCn2c(nnc2C2CC2)C1 (stereo not drawn)	2.95%
CCCC(=O)NC1CCCN(C(=O)c2ccc(C)nc2)C1 (stereo not drawn)	14.6%
COCCc1nc(-c2cnn3c(C)cc(C)nc23)no1	-107%
CN(C)c1nc2c(c(N(C)Cc3n[nH]c4c3CCCCC4)n1)CCNC2	-9.48%
COc1c(CNC(c2ccccc2F)c2nccn2C)c(C)nn1C (stereo not drawn)	-4.51%
Cc1cn2c(n1)C(CNCc1cccc3c1OCO3)CCC2 (stereo not drawn)	23.3%
COCCCNC(=O)Cc1nc(-c2ccncc2)n[nH]1	-1.85%
O=C(CC1CCCC1)N1CCC2(CCN2Cc2ccc(F)cc2)C1 (stereo not drawn)	1.62%
